Measurements reported in patent US10344071B2, “Identification of novel anti-fibrotic peptide in C-terminal region of the MET receptor tyrosine kinase” (MUSC Foundation for Research Development, priority 2015, dated 2019).
Ends that are not written are not given here.

What was measured:
MET WT = molecular target: T1, MET WT (Homo sapiens, UniProt P08581); test: HGF-induced MET tyrosine phosphorylation in transfected LF and AEC; assay type: cell-based; details: HGF 50 ng/ml
T1 construct: The wild type (WT) full-length c-MET cDNA in pLXSN; expressed in transfected cells; host or cells: lung fibroblasts (LF) and A549 alveolar epithelial cells, infected with recombinant adenovirus (pAdTrack-CMV/AdEasy)
Procedure: (§1) FIG. 1, comprising FIG. 1A and FIG. 1B, depicts MET tyrosine phosphorylation in lung fibroblasts (LF) and alveolar epithelial cells (AEC). FIG. 1A depicts a time course of MET WT and MET D1398G tyrosine phosphorylation as determined in LF and AEC incubated with HGF (50 ng/ml) for various time points. Cell extracts were immunoblotted with anti-phospho-MET or anti-MET polyclonal antibodies (see details in Materials and Methods). FIG. 1B depicts quantitative results of densitometric analysis of immunoblots. Values are the mean and SD from three independent experiments.
(§2) Cells were collected and analyzed by immunoblotting as previously described (Bogatkevich et al., J Biol Chem. 2001, 276:45184-45192; Bogatkevich et al., Arthritis Rheum. 2007, 56:3468-3477). Phosphorylation of MET was analyzed using anti-phospho-c-Met [pYpYpY^1230/1234/1235], pY^1349, and pY^1356 antibodies (BioSource International, Inc., Camarillo, Calif.). Total MET was immunobloted using anti-MET (C12) (Santa Cruz Biotechnology, Santa Cruz, Calif.) and anti-MET (25H2) (Cell Signaling, Danvers, Mass.). Anti-type I collagen antibody (Southern Biotechnology, Birmingham, Ala.)), anti-CTGF antibody (Santa Cruz Biotechnology, Santa Cruz, Calif.), and anti-smooth-α-actin antibody (Sigma, St. Louis, Mo.) were also used.
(§3) As an initial approach to evaluate the functional consequences of D1398G mutation, HGF-induced MET autophosphorylation was studied in LF and AEC (A549 cell line) transfected either with MET WT or D1398G mutant. MET tyrosine phosphorylation was assessed using anti-phospho-c-Met[pYpYpY^1230/1234/1235], pY^1349, and pY^1356 antibodies. Treatment with HGF induced rapid phosphorylation of MET WT at tyrosine 1230, 1234, and 1235 in both LF and AEC. Maximal phosphorylation was observed within 5 minutes of HGF treatment and decreased by 20 minutes following HGF treatment (FIG. 1). […] The time course of HGF-induced phosphorylation at tyrosine 1356 in LF resembled tyrosine 1230, 1234, and 1235 phosphorylation with maximal levels observed within 5 minutes of HGF treatment. Tyrosine 1356 phosphorylation in AEC appeared to be stronger than in LF with maximal levels observed within 20 minutes of HGF treatment.

MET D1398G = molecular target: T2, MET D1398G (Homo sapiens, UniProt P08581, D1380G); test: as above; assay type: cell-based; details: HGF 50 ng/ml
T2 construct: The wild type (WT) full-length c-MET cDNA in pLXSN; expressed in transfected cells; host or cells: lung fibroblasts (LF) and A549 alveolar epithelial cells, infected with recombinant adenovirus (pAdTrack-CMV/AdEasy)
Procedure: as §1, §2, §3

[1] = tested on: normal LF transfected with MET WT or MET D1398G; test: Collagen, SMA, CTGF in transfected TGFβ-stimulated normal lung fibroblasts, Western blot; assay type: cell-based, human; details: 48 hours
Procedure: FIG. 3, comprising FIG. 3A through FIG. 3D, depicts expression of type I collagen, SMA, and CCN2 in normal lung fibroblasts (LF) transfected with MET WT and MET D1398G. Transfected […] lung fibroblasts were serum-starved for 24 hours followed by incubation for 48 hours with recombinant TGFβ (5 ng/ml) and/or HGF (50 ng/ml). FIG. 3A depicts that the cells were collected with lysis buffer and analyzed by Western blot with indicated antibodies including MET as a transfection efficiency control and anti-β-actin antibody as a loading control. FIG. 3B through FIG. 3D depict densitometric analysis of immunoblots for collagen, SMA and CCN2 respectively. Values are the mean and SD from three independent experiments.
as §2, with “Anti-type I collagen antibody (Southern Biotechnology, Birmingham, Ala.)), anti-CTGF antibody (Santa Cruz Biotechnology, Santa Cruz, Calif.), and anti-smooth-α-actin antibody (Sigma, St. Louis, Mo.) were also used.” left out

Ras = Ras Activity Assay (G-LISA, Ras-GTP); assay type: cell-based, human; details: 50 ng/ml; LF and AEC transfected with MET WT
Procedure: (§4) FIG. 4, comprising FIG. 4A through FIG. 4D, depicts the effect of HGF on Ras activation and Erk1/2 phosphorylation in lung fibroblasts (LF) and alveolar epithelial cells (AEC). FIG. 4A depicts HGF-induced Erk1/2 phosphorylation in LF and AEC transfected with MET WT and MET D1398G was determined in cells treated with HGF (50 ng/ml) for 10 min. Cell extracts were immunoblotted with anti-phospho-Erk1/2 or anti-Erk1/2, anti-MET, and anti-β-actin antibodies. FIG. 4B depicts densitometric analysis of phospho-Erk1/2 immunoblots from three independent experiments. FIG. 4C and FIG. 4D depict Ras activity in LF and AEC respectively, transfected with MET WT and MET D1398G treated with and without HGF (50 ng/ml) for 10 min.
G-LISA Kit (Cytoskeleton Inc., Denver, Colo.) was used to measure endogenous Ras-GTP levels. […] Bound Ras-GTP levels were determined by anti-Ras primary antibody followed by horseradish peroxidase-conjugated secondary antibody. A peroxidase substrate was applied, and the plates were read at 450 nm on a spectrophotometer.
HGF-induced phosphorylation of Erk1/2 is mediated by Ras (Campbell, et al., Oncogene, 1998, 17:1395-413). To investigate whether D1398G mutation affects MET-dependent Ras activation, Ras-GTP in LF and in AEC transfected with MET WT and with MET D1398G was measured.

Erk1/2 phosphorylation = test: HGF-induced Erk1/2 phosphorylation in transfected LF and AEC; assay type: cell-based, human; details: 50 ng/ml for 10 min
Procedure: as §4
The phosphorylation of p42/p44 MAPK isoforms was analyzed using anti-phospho-Erk1/2 and Erk1/2 antibodies in accordance with the manufacturer's instructions (Cell Signaling Technology, Danvers, Mass.). Immunoblots were routinely stripped and reblotted with anti-β-actin antibody (Sigma, St. Louis, Mo.) as a loading control.
To investigate whether the D1398G mutation affects MAPK signaling pathways, the Erk1/2 phosphorylation was examined. Basal and HGF-induced Erk1/2 phosphorylation were more prominent in AEC as compared with LF. […] The basal level of nonphosphorylated Erk1/2 in LF and AEC was not affected either by HGF stimulation or by transfection with D1398G mutation.

[2] = tested on: scleroderma LF transfected with MET WT or MET D1398G; test: Collagen, SMA, CTGF in transfected scleroderma lung fibroblasts, Western blot; assay type: cell-based, human; details: 50 ng/ml for 48 hours
Procedure: FIG. 2, comprising FIG. 2A and FIG. 2B, depicts Expression of type I collagen, SMA, and CCN2 in scleroderma lung fibroblasts (LF) transfected with MET WT and MET D1398G. FIG. 2A depicts transfected SSc LF were serum-starved for 24 hours followed by incubation for 48 hours with recombinant HGF (50 ng/ml). The cells were collected with lysis buffer and analyzed by Western blot with indicated antibodies including MET as a transfection efficiency control. Anti-β-actin antibody was used as a loading control. FIG. 2B depicts quantitative results of densitometric analysis of immunoblots. Values are the mean and SD from four independent experiments.
as §2, with “used. […]” for “used.”

[3] = tested on: bleomycin-induced pulmonary fibrosis; details: mouse, in vivo
Text: FIG. 14A depicts representative histologic findings of lung inflammation and fibrosis. […] FIG. 14B depicts a quantitative evaluation of fibrotic changes (Ashcroft scores), n=32 (8 mice per group).
Mice (n=6), C57BL/6 male were used in this study. Mice were maintained in animal quarters specially designated for pathogen-free mice and were provided with food and water ad libitum. Lung injury was induced by intratracheal instillation of bleomycin (2 U/kg in saline) under isoflurane anesthesia. Control mice received same volume of saline. […] Control mice received 10 mg/kg scrambled peptide. Animals were sacrificed in 3 weeks, and lungs were harvested and processed for tissue staining.
Sacrificed mice were subjected to midline thoracotomy. […]
To evaluate the stages of lung fibrosis, multiple sections from each lung were stained with Hematoxylin and eosin (H & E staining) or with trichrome staining for collagen and other extracellular matrix proteins. Fibrosis quantification was performed by using 0 (normal) to 8 (total fibrosis) Ashcroft scale (Ashcroft, et al., J Clin Pathol, 1988, 41:467-470). Morphological changes such as the thickness of alveolar septa, accumulation of vascular component and connective tissue, infiltration of inflammatory cells were analyzed. For histological evaluation each specimens were divided in 10 non-overlapping fields and scored independently. […]

[4] = tested on: TGFβ-stimulated lung fibroblasts; test: Collagen in TGFβ-stimulated lung fibroblasts, immunoblot; assay type: cell-based; details: 1 μg/ml for 24 h; TGFβ 5 ng/ml
Procedure: FIG. 18 depicts M5 peptide inhibits collagen in TGFβ-stimulated lung fibroblasts. Cells were incubated with and without TGFβ (5 ng/ml) and M5 peptide (1 μg/ml) for 24 h and analyzed by immunoblotting using anti-collagen type I antibody. Beta-actin was used as a loading control.
A peptide containing just the M5 sequence (TRPAS (SEQ ID NO: 4)) was generated and was tested for its effect on collagen.

Q: For “HGF: recombinant hepatocyte growth factor, ligand of the MET receptor”, which “time of maximal phosphorylation at tyrosine 1356” value (from here on “time … at tyrosine 1356”) (MET WT; AEC) is on record?
A: ≤ 20 min

Q: And the “time … at tyrosine 1356” value (MET WT; LF)?
A: ≤ 5 min

Q: And the “time of maximal phosphorylation at tyrosine 1230, 1234, and 1235” value (MET WT; LF and AEC)?
A: ≤ 5 min

Q: What about the “tyrosine phosphorylation of MET D1398G in contrast to MET WT” value (MET D1398G; LF and AEC) of the same substance?
A: decreased and delayed

Q: What about the “time … at tyrosine 1356” value (MET D1398G; MET D1398G) of the same substance?
A: 1 h

Q: And the “levels of collagen, SMA and CTGF” value [1]?
A: decreased the levels of collagen, SMA and CTGF

Q: What about the “total Ras activity” value (Ras) of the same substance?
A: significant increase in total Ras activity

Q: What about the “HGF-induced Erk1/2 phosphorylation, MET WT compared with MET D1398G cells” value (Erk1/2 phosphorylation) of the same substance?
A: notably higher

Q: What about the Erk1/2 phosphorylation (Erk1/2 phosphorylation; LF and AEC transfected with MET WT or MET D1398G) of the same substance?
A: further induced Erk1/2 phosphorylation

Q: And the “expression of collagen, SMA, and CTGF” value ([2]; scleroderma LF transfected with MET D1398G)?
A: not in LF transfected with mutant MET D1398G

Q: What about the “expression of collagen, SMA, and CTGF” value ([2]; scleroderma LF transfected with MET WT) of the same substance?
A: reduced expression of collagen, SMA, and CTGF

Q: Which “cell viability measured by the ATP-dependent assay” value (cell viability) does the source give for TRPASFWETS [M10] here?
A: does not affect cell viability

Q: And the “lung histology in control mice that received saline and peptide” value [3]?
A: normal septa, vascular components, and connective tissue

Q: How did the “level of collagen versus fibroblasts stimulated with TGFβ” value [4] turn out when “TRPAS (M5 Peptide) [C-terminal fragment of the MET receptor]” was run?
A: reduced level of collagen
